Test results reported in patent US20250059187A1, “COVALENTLY BINDING INHIBITORS OF G12S, G12D AND/OR G12E MUTANTS OF K-RAS GTPASE” (The Regents of the University of California, priority 2021, published 2025).

Tests used:
wild type K-Ras = molecular target: T1, wild type K-Ras (Homo sapiens, UniProt P01116); test: Covalent modification of recombinant wild-type K-Ras by whole-protein mass spectrometry; assay type: binding; conditions: 24-h incubation, 100 μM compound, 23° C., pH 7.5
T1 construct: human K-Ras (wildtype, aa 1-169); 6xHis tag + TEV cleavage site (N, cleaved yes); made in house; host or cells: E. coli BL21(DE3)

[1] = tested on: A549 cells (homozygous KRAS p.G12S mutation); test: Immunoblot and Raf-RBD pulldown in A549 cells; assay type: cell-based; conditions: 2 h
Procedure: Cells were passed for at least two generations after cryorecovery before they were used for assays. All cell lines were tested mycoplasma negative using MycoAlert™ Mycoplasma Detection Kit (Lonza). When indicated, cells were treated with drugs at 40-60% confluency at a final DMSO concentration of 1%. At the end of treatment period, cells were placed on ice. Unless otherwise indicated, adherent cells were washed once with ice-cold PBS (1 mL), scraped with a spatula, and pelleted by centrifugation (500×g, 5 min). Suspension cells were pelleted by centrifugation (500×g, 5 min), washed with 1 mL ice-cold PBS, and pelleted again. Cells were lysed in RIPA buffer supplemented with protease and phosphatase inhibitors (cOmplete and phosSTOP, Roche) on ice for 10 min. For RBD pulldown experiments, cells were lysed in Co-IP Lysis Buffer in lieu of RIPA buffer. Lysates were clarified by high-speed centrifugation (19,000×g, 10 min). Concentrations of lysates were determined with protein BCA assay (Thermo Fisher) and adjusted to 2 mg/mL with additional RIPA buffer (or Co-IP Lysis Buffer). Samples were mixed with 5×SDS Loading Dye and heated at 95° C. for 5 min.
Ras·GTP pulldown was performed with GST-RBD agarose beads (Cytoskeleton, 10 μL, 30 μg loaded GST-RBD). 50 μL lysate (2 mg/mL) was mixed with 10 μL beads, and the suspension was incubated at 4° C. for 1 h with constant end-to-end rotation. The beads were settled by centrifugation (500×g, 5 min) and the supernatant was carefully removed. The beads were washed with 2×500 μL ice-cold Co-IP wash buffer. Bound protein was eluted with 10 μL 2×SDS Loading Buffer.
Membranes were blocked in 5% BSA-TBST for 1 h at 23° C. […] After washing the membrane three times with TBST (5 min each wash), secondary antibodies (goat anti-rabbit IgG-IRDye 800 and goat anti-mouse IgG-IRDye 680, Li-COR) were added as solutions in 5% skim milk-TBST at the dilutions recommended by the manufacturer. Secondary antibody binding was allowed to proceed for 1 h at 23° C. The membrane was washed three times with TBST (5 min each wash) and imaged on a Li-COR Odyssey fluorescence imager.

[2] = tested on: parental Ba/F3 cells (with IL-3); test: Cell viability assay (CellTiter-Glo), parental Ba/F3 cells; assay type: cell-based, murine; conditions: Mus musculus, BaF3; +10 ng/mL IL-3, 72 h; read-out: IC50, growth of parental Ba/F3 cells
Procedure: Cells were seeded into 96-well white flat bottom plates (1,000 cells/well) (Corning) and incubated overnight. […] Cell viability was assessed using a commercial CellTiter-Glo (CTG) luminescence-based assay (Promega). Briefly, the 96-well plates were equilibrated to room temperature before the addition of diluted CTG reagent […] (1:4 CTG reagent:PBS). Plates were placed on an orbital shaker for 30 min before recording luminescence using a Spark 20M (Tecan) plate reader.

K-Ras G12E = molecular target: T2, K-Ras G12E (Homo sapiens, UniProt P01116, G12E); test: Covalent modification of test protein after incubation with compound; assay type: binding; conditions: 24-h incubation with 100 μM compound at 23° C. at pH 7.5
T2 construct: human K-Ras (G12E, aa 1-169); 6xHis tag + TEV cleavage site (N, cleaved yes); made in house; host or cells: E. coli BL21(DE3)

Q: With `O=C1O[C@H]2CN(c3nc(OCC45CCCN4CCC5)nc4c(F)c(-c5cccc6cccc(Cl)c56)ncc34)CC[C@@H]12` [5′] as the molecule, how does the “% covalent modification of wild type K-Ras” value (wild type K-Ras) read?
A: 0%

Q: And the “effects on phospho-Akt, phospho-Erk and Ras·GTP levels” value ([1]; 10 μM)?
A: nearly complete loss of Ras·GTP and concomitant inhibition of phospho-Erk

Q: And the IC50 ([1]; Homo sapiens, A549 cells, read-out: apparent IC50, inhibition of Ras signaling)?
A: ~3 µM

Q: What about the IC50 [2] of the same molecule?
A: 12.5 µM

Q: And the “% covalent modification of K-Ras G12E” value (K-Ras G12E)?
A: 0%
